Numbered stars: 1 amine (or outer) side, 2 acyl side, 3 side chain; on linkers, the order of the positions; unused ones are H or OH. Bridge positions count the residues as written; N and C are the ends. Square brackets hold non-standard residues; d marks the D form. Side chains are listed from the residue outwards. Peptide text beside a SMILES is read from it. * marks the point of attachment. Trp(1-Me) = Cn1cc(C[C@H](N)C(=O)O)c2ccccc21; C18 diacid = O=C(O)CCCCCCCCCCCCCCCCC(=O)*; C16 diacid = O=C(O)CCCCCCCCCCCCCCC(=O)*; γGlu = O=C(O)[C@H](CCC(=O)[*:2])N[*:1]; AEEA = NCCOCCOCC(=O)O; CH2 = C([*:1])[*:2]; Sar = CNCC(=O)O Bounds are passed on as bounds.

The source of these data is patent US20230287051A1, “INHIBITORS OF COMPLEMENT FACTOR C3 AND THEIR MEDICAL USES” (ZP SPV 3 K/S, priority 2020, published 2023).

One assay addresses T1, Human C3 (Homo sapiens, UniProt P01024).
T1 construct: purchased Complement tech A113c
Kind of assay: Affinity measurement by surface plasmon resonance with immobilized C3. Particulars: SPR, immobilized human C3, 25° C., 1:1 Langmuir binding model, n=>2. The protocol:
Surface plasmon resonance (SPR) was used to characterize peptides with respect to their binding affinity (Kd) for C3.
For interaction experiments, a multi-cycle experiment approach was used and performed using a BiacoreX100™ instrument (GE Healthcare) at 25° C. Peptides were injected in increasing concentration series (5 different concentrations and buffer reference) for 180 seconds at a flow rate of 30 μL/min in a buffer consisting of 50 mM Tris buffer at pH 7.4, with 150 mM NaCl and 0.05% Tween20. This was followed by a dissociation period for 10 min. The C3 surface was regenerated between runs by two consecutive injections of 3 M MgCl2 each for 45 seconds.
Sensorgrams were double-referenced (reference surface, blanks) prior to analysis of the kinetic profiles by globally fitting data to a 1:1 Langmuir binding model to obtain association and dissociation rates for calculation of the equilibrium dissociation constant Kd (Table 3). Each peptide was tested at in at least 2 independent experiments.

Assay [1] relates to classical complement pathway. Kind of assay: In vitro haemolysis assay (inhibition of classical complement pathway). It is filed as cell-based. The note with it: human serum, sensitized sheep RBC, 30 minutes at 37° C., absorbance at 405 nm, n=>2; read-out: IC50, inhibition of hemolysis. The procedure, abridged: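 Compounds in 9-point serial dilution in Tris/casein buffer pH 7.4 (Ca2+/Mg2+) preincubated 15 min at room temperature with diluted human serum (dilution giving 70-90% maximal haemolysis), then antibody-sensitized sheep RBCs added, 30 min at 37° C. EDTA stop; supernatant haemoglobin read at 405 nm. IC50 from 4PL fit, normalized to controls, n≥2.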

As usually defined, the Kd is the concentration at which binding is half-saturated. The low end stands for tighter binding, the high end for weaker binding. As usually defined, the IC50 is the concentration that gives 50% inhibition. With `CC[C@H](C)[C@@H]1NC(=O)[C@@H](NC(=O)[C@H](Cc2ccccc2)NC(=O)[C@H](CCC(=O)O)NC(=O)[C@H](CO)NC(=O)CNC(=O)[C@H](CCC(=O)O)NC(C)=O)CSCSC[C@@H](C(=O)N[C@H](C(=O)N[C@@H](CCC(=O)O)C(=O)NCC(=O)N[C@@H](CCC(=O)O)C(=O)NCCOCCOCC(=O)N[C@@H](CCC(=O)O)C(=O)N[C@@H](CO)C(=O)N[C@@H](CCCCNC(=O)CC[C@H](NC(=O)CCCCCCCCCCCCCCCCC(=O)O)C(=O)O)C(N)=O)[C@@H](C)O)NC(=O)[C@H](CCCNC(=N)N)NC(=O)[C@H](Cc2c[nH]cn2)NC(=O)[C@H](CCC(=O)O)NC(=O)CN(C)C(=O)[C@H](Cc2c[nH]c3ccccc23)NC(=O)[C@H](CC(=O)O)NC(=O)[C@H](CCC(N)=O)NC(=O)[C@H](Cc2cn(C)c3ccccc23)NC1=O` [Compound 20, Ac-EGSEF[C(1)]I[1-Me-Trp]QDW[Sar]EHR[C(1)]TEGE[Peg3]ES-K([17-Carboxy-heptadecanoyl][yGlu])-NH2] (Ac-EGSEFCI[Trp(1-Me)]QDW[Sar]EHRCTEGE[AEEA]ESK([γGlu-C18 diacid])-NH2; linker 6-16 via CH2), at Human C3, the Kd turned out to be 19 nM. In assay [1], the IC50 is under 250 nM.
In the case of `CC[C@H](C)[C@@H]1NC(=O)[C@@H](NC(=O)[C@H](Cc2ccccc2)NC(=O)[C@H](CCC(=O)O)NC(=O)[C@H](CO)NC(=O)CNC(=O)[C@H](CCC(=O)O)NC(=O)CCCCCCCCCCCCCCC(=O)O)CSCSC[C@@H](C(=O)N[C@H](C(=O)N[C@@H](CCC(=O)O)C(=O)NCC(=O)N[C@@H](CCC(=O)O)C(N)=O)[C@@H](C)O)NC(=O)[C@H](CCCNC(=N)N)NC(=O)[C@H](Cc2c[nH]cn2)NC(=O)[C@H](CCC(=O)O)NC(=O)CN(C)C(=O)[C@H](Cc2c[nH]c3ccccc23)NC(=O)[C@H](CC(=O)O)NC(=O)[C@H](CCC(N)=O)NC(=O)[C@H](Cc2cn(C)c3ccccc23)NC1=O` [Compound 19] ({C16 diacid}-EGSEFCI[Trp(1-Me)]QDW[Sar]EHRCTEGE-NH2; linker 6-16 via CH2), the Kd at Human C3 amounted to 19 nM. Besides, the IC50 in assay [1] was under 250 nM.
With `CC[C@H](C)[C@@H]1NC(=O)[C@@H](NC(=O)[C@H](Cc2ccccc2)NC(=O)[C@@H](NC(=O)CNC(=O)[C@H](CO)NC(=O)[C@@H](N)CCC(=O)O)C(C)C)CSCSC[C@@H](C(=O)N[C@H](C(=O)N[C@@H](CCC(=O)O)C(=O)NCC(=O)N[C@@H](CCC(=O)O)C(=O)NCCOCCOCC(=O)NCCOCCOCC(=O)N[C@@H](CCCCNC(=O)CC[C@H](NC(=O)CNC(=O)CC[C@H](NC(=O)CCCCCCCCCCCCCCCCC(=O)O)C(=O)O)C(=O)O)C(N)=O)[C@@H](C)O)NC(=O)[C@H](CCCNC(=N)N)NC(=O)[C@H](Cc2c[nH]cn2)NC(=O)[C@H](CCC(=O)O)NC(=O)CN(C)C(=O)[C@H](Cc2c[nH]c3ccccc23)NC(=O)[C@H](CC(=O)O)NC(=O)[C@H](CCC(N)=O)NC(=O)[C@H](Cc2cn(C)c3ccccc23)NC1=O` [Compound 29, H-ESGVF[C(1)]I[1-Me-Trp]QDW[Sar]EHR[C(1)]TEGE[Peg3][Peg3]-K([17-Carboxy-heptadecanoyl][yGlu]G[yGlu])-NH2] (H-ESGVFCI[Trp(1-Me)]QDW[Sar]EHRCTEGE[AEEA][AEEA]K([γGlu-Gly-γGlu-C18 diacid])-NH2; linker 6-16 via CH2), binding on Human C3 was characterised by a dissociation constant (Kd) of 15 nM. For the same compound, the 50% inhibitory concentration (IC50) in assay [1] was under 100 nM.
